Results on four compounds are retold here after patent US5919784A, “Heterocyclic aminomethyl compounds” (Adir Et Compagnie, priority 1996, dated 1999).

For one assay, the target named is T1, human D4.4 receptor (Homo sapiens, UniProt P21917).
T1 construct: purchased Receptor Biology Inc. (Md., USA); host or cells: CHO cells (transfected), membranes
T1 sequence (P21917 1-419): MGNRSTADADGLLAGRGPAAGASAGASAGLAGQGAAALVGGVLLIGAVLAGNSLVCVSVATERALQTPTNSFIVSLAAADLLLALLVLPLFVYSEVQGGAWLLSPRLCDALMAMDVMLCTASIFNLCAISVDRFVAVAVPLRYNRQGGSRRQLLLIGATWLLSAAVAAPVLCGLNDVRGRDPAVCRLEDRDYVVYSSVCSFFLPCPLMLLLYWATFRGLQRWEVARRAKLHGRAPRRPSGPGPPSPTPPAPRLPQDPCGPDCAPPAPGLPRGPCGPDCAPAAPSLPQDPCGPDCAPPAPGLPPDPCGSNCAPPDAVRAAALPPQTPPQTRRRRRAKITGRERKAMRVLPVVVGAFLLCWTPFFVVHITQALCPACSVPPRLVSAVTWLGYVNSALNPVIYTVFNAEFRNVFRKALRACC
In words: Antagonism at human D4.4 receptors, [35S]GTPγS binding (G protein activation) stimulated by dopamine. The assay is classed as biochemical. Particulars: antagonism of dopamine-stimulated [35S]GTPγS binding; antagonist preincubated with fixed concentration of dopamine 30 min; CHO membranes; read-out: Kb (antagonist potency constant). On the procedure:
The efficacy was determined by measuring the activation of G proteins by stimulating the binding of [^35 S]GTPγS (NEN, Les Ulis, France). The membranes prepared from CHO cells transfected with the human D4.4 receptor were purchased from Receptor Biology Inc. (Md., USA). The membranes (50 μg of membrane protein) are incubated in triplicate with 0.1 nM [^35 S]GTPγS and the cold ligand in a final volume of 0.5 ml for 20 min at 25° C. The incubation buffer contains 20 mM HEPES (pH 7.4), 3 μM GDP, 3 mM MgCl2 and 100 mM NaCl. At the end of the incubation, the incubation medium is filtered through WHATMAN GF/B filters impregnated with water and washed three times with 2 ml of cooled buffer. The radioactivity retained on the filters is determined by liquid scintillation counting. The binding isotherms are analyzed by nonlinear regression using `PRISM` software (GraphPad Software Inc., S. Diego, USA) to determine EC50 and efficacy (Emax) values. The efficacy is expressed as a percentage of the stimulation of the binding of [^35 S]GTPγS induced by dopamine.
For the tests of antagonism, the membranes are preincubated with the antagonist at a fixed concentration of dopamine for 30 min before adding the [^35 S]GTPγS. […]
in which [Antagonist] is the antagonist concentration and EC50 is the EC50 determined in the absence of antagonist (dopamine alone).
In general terms: Binding of GTPγS marks nucleotide exchange on a G protein.

Another assay relates to D4 receptors. The conditions noted are these: literature; cited from earlier work.

Molecules are shown by their SMILES. Counter-ions that a name gives are not always drawn.

Usually Kb stands for the affinity of an antagonist, worked out from how it opposes an agonist. Regarding `COc1ccccc1N1CCN(Cc2ccc3c(c2)sc(=O)n3C)CC1` [Example 1, 3-METHYL-6-[(4-(2-METHOXYPHENYL)-1-PIPERAZINYL)METHYL]-BENZOTHIAZOLINONE HYDROCHLORIDE], the Kb at human D4.4 receptor was 2.39 ± 1.1 nM.

For the compound `Cn1c(=O)sc2cc(CN3CCN(c4ccccc4F)CC3)ccc21` [Example 3, 3-METHYL-6-[(4-(2-FLUOROPHENYL)-1-PIPERAZINYL)METHYL]-BENZOTHIAZOLINONE], the Kb at human D4.4 receptor turned out to be 16.1 ± 5 nM.

On to `CN1CCN(C2=Nc3cc(Cl)ccc3Nc3ccccc32)CC1` [clozapine], for which the “affinity for the D4 receptors (in words)” value in the assay with D4 receptors is on record as “high affinity”.

`NC[C@H](O)c1ccc(O)c(O)c1` [noradrenaline]: the “affinity for the D4 receptors (in words)” value in the assay on D4 receptors was “high affinity”.
